Key:
Assay type in all cases: cell-based
[1] = test system: ion channels of a Lymnaea Stagnalis neuron; experiment: Extracellular recording, average of standard deviations of the electrical signal (Example 3); conditions: 0, 0.1, 0.3, 1, 3, 10, 30 and 100 μM in artificial cerebrospinal fluid; 10 seconds of data
Protocol: The apparatus having the configuration shown in FIG. 13 was used to measure an action of a neuron to the chemical substance Carbachol, where the neuron was prepared from Lymnaea Stagnalis. Carbachol is a chemical substance known as an analog of the neurotransmitter Acetylcholine. Carbachol (manufactured by Sigma) was dissolved in artificial cerebrospinal fluid to concentrations of 0, 0.1, 0.3, 1, 3, 10, 30 and 100 μM. The solutions having these concentrations were used to measure an electrical signal emitted by the neuron. For each Carbachol concentration, time-series data for 10 seconds was obtained from the measurement section (signal source) 101 comprising the sensor substrate, and was sampled at intervals of 100 miliseconds, and the standard deviation of the sampling data was calculated. The average of the standard deviation was plotted in FIG. 17.

[2] = test system: ion channels of a Lymnaea Stagnalis neuron; experiment: Extracellular recording, normal distribution of standard deviations before and after application (Example 4); conditions: after applying 50 μM; 0.478 before the application
Excerpt: FIG. 14 is a conceptual diagram showing a configuration of an apparatus for detecting an action of a subject chemical substance on a biological sample according to the present invention. The apparatus is the same as the apparatus of FIG. 13, except that a normal distribution approximation section 103, an average/half-width calculation section 106 and an activity categorization section 109 are employed in place of the average calculation section 105 and the activity calculation section 108. Communications between each section are indicated by a dashed line or a solid line in FIG. 13. […] Note that similar to the apparatus of FIG. 13, the unit standard deviation calculation section 102, the normal distribution approximation section 103, the average/half-width calculation section 106 and the activity categorization section 109 may be representatively software programs which are recorded in a hard disk of a computer. […] Before and after 50 μM-concentration Carbachol was applied to a Lymnaea Stagnalis neuron, signals were obtained from the measurement section (signal source) 101, and the standard deviation of the signals was calculated in a manner similar to that of Example 1. […]

[3] = test system: Neurons prepared from the cerebral cortex of gestation day 17 SD rat embryos

Compound	average of the standard deviation every 100 miliseconds versus concentration [1]	average of the normal distribution of standard deviation values every 5 miliseconds [2]	frequency at which the noise has a maximal value [3]	noise intensity in the absence of the Ca antagonist relative to that in its presence [3]
C[N+](C)(C)CCOC(N)=O [Carbachol]	the greater the Carbachol concentration, the greater the average of the standard deviation every 100 miliseconds	0.703	–	–
ω-conotoxin GVIA [Ca antagonist]	–	–	about 4 Hz	about 1.5 times

From patent publication US20030113833A1, “Device for measuring extracellular potential, method of measuring extracellular potential by using the same and apparatus for quickly screening drug provided therewith” (priority 2001, published 2003)
